One test deals with T1, GR (human) (Homo sapiens, UniProt P04150).
T1 construct: GR (human) (agonist radioligand) IM-9 cells (cytosol); endogenous in cells; host or cells: IM-9 cells (cytosol)
T1 sequence (P04150 1-777): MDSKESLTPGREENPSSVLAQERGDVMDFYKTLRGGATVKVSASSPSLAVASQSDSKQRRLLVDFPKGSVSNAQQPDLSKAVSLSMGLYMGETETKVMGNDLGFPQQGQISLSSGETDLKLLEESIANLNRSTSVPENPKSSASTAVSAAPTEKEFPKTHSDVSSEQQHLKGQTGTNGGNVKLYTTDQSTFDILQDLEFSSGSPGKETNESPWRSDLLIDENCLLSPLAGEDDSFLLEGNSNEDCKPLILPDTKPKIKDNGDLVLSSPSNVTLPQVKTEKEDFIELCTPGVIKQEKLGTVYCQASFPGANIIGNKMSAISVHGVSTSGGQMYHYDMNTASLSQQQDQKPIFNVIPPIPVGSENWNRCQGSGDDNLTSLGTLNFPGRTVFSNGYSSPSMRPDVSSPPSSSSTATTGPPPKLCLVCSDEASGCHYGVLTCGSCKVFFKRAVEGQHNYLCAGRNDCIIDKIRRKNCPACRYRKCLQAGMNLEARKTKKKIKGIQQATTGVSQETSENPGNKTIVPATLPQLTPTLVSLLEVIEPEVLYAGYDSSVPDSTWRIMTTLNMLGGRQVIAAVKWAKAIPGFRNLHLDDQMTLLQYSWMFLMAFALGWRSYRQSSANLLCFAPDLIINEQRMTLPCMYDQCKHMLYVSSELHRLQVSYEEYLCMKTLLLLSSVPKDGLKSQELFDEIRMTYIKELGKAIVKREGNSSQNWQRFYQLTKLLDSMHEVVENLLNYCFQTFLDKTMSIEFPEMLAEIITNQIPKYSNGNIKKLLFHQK
The test can be described thus: Radioligand binding to GR ([3H]dexamethasone, IM-9 cells cytosol). Here is the method:
Radioligand binding assays were performed with the cell extracts and ligands as detailed below. Complete methodology is contained within the cited publications. Kd values were determined by Non-Specific Incubation Detection Method.
GR (human) (agonist radioligand) IM-9 cells (cytosol) [^3H]dexamethasone 1.5 nM 1.5 nM triamcinolone (10 μM) 6 h 4° C. Scintillation counting (Clark, A. F et al. (1996) Invest. Ophtalmol. Vis. Sci., 37: 805-813). ER (nonselective) (human) (agonist radioligand) MCF-7 cells (cytosol) [^3H]estradiol 0.4 nM 0.2 nM 17-β-estradiol (6 μM) 20 h 4° C. Scintillation counting (Parker, G. J et al.(2000) J. Biomol. Screen., 5: 77-88).
The results are expressed as a percent of control specific binding measured specific binding *100 control specific binding and as a percent inhibition of control specific binding 100-(measured specific binding*100) control specific binding obtained in the presence of compoundn.
The IC50 values (concentration causing a half-maximal inhibition of control specific binding) and Hill coefficients (nH) were determined by non-linear regression analysis of the competition curves generated with mean replicate values using Hill equation curve fitting.
The inhibition constants (Ki) were calculated using the Cheng Prusoff equation:
wherein L=concentration of radioligand in the assay, and KD=affinity of the radioligand for the receptor. […]

In a further test the test system is VCaP cells. The test can be described thus: Prostate Cancer Cell Viability Assay-VCaP. Type of test: cell-based. As to conditions: Homo sapiens, 120 h, 5 days incubation, CellTiter-Glo. The protocol:
VCaP cells were counted and seeded into black 384-well plates with clear bottoms at a concentration of 125,000 cells per mL in phenol red-free DMEM containing 10% Charcoal Stripped Serum. 16 μL of the suspension was added per well and incubated for 48 h to allow the cells to adhere. After 48 hours, a 12 point serial semilog dilution of each compound was added to the cells in 16 μL at a final concentration of 100 μM to 0.0003 μM. The compounds of Formula (I) were also run in antagonist mode using 30 pM R1881 in which 8 μL of the compound was added to the cells followed by 8 μL of R1881. After 5 days of incubation at 37° C., 16 μL Of CellTiter-Glo (Promega) was added to the cells and the relative luminescence units (RLUs) of each well determined using the Envision. The percent stimulation and % inhibition were determined for each sample and plotted using GraphPad Prism.

The next test concerns LNCaP WT. The experiment in a line: LNCaP Proliferation Assay (LNCaP WT). Type of test: cell-based. As to conditions: Homo sapiens, 96 h, 4 days, normalized to 0.1 nM R1881 stimulation. The protocol: (§1) LNCaP cells were expanded in RPMI 10% FBS in T150 flasks. The cells were dislodged with 0.25% Trypsin, washed in complete media, centrifuged (300 g, 3 min), and the supernatant aspirated. The cells were resuspended in RPMI phenol-red free media with 1% charcoal-stripped serum (CSS) and counted using a ViCELL (Beckman-Coulter). 7500 cells were added to each well of a white optical bottom 384-well plate and incubated for 2 days at 37° C. 5% CO2. Compound dilutions were prepared in RPMI CSS using 50 mM stock solutions and added to the cells either alone (agonist mode) or in combination with 0.1nM R1881 (antagonist mode). The plates were incubated for 4 days, followed by addition of CellTiter-Glo Luminescent Cell Viability kit reagent (Promega). The plates were placed on a shaker at 3000 rpm for 10 minutes and then read on an EnVision plate reader (Perkin Elmer) using Luminescence assay default settings. The data was analyzed, normalized to 0.1 nM R1881 stimulation, and plotted in GraphPad Prism.

In another test the test system is LNCaP F876L. The experiment in a line: LNCaP Proliferation Assay (LNCaP F876L). Type of test: cell-based. As to conditions: Homo sapiens, 96 h, 4 days, normalized to 0.1 nM R1881 stimulation. Here is the method:
as §1

The next test has as its target rGABA-gated Cl− channel. The experiment in a line: GABA-gated Cl Channel Antagonist Radioligand Binding Assay ([35S]-TBPS, cerebral cortex membranes). As to conditions: 3 nM [35S]-TBPS. Set-up: species or system rat. Here is the method: GABA-gated Cl Chanel assays were performed at CEREP according to the following method. Membrane homogenates of cerebral cortex (120 μg protein) were incubated for 120 min at 22° C. with 3 nM [^35S]-TBPS in the absence or presence of the test compound in a buffer containing 50 mM Na2HPO4/KH2PO4 (pH 7.4) and 500 mM NaCl. Nonspecific binding was determined in the presence of 20 μM picrotoxinin. Following incubation, the samples were filtered rapidly under vacuum through glass fiber filters (GF/B, Packard) presoaked with 0.3% PEI and rinsed several times with ice-cold 50 mM Tris-HCl using a 96-sample cell harvester (Unifilter, Packard). The filters were dried then counted for radioactivity in a scintillation counter (Topcount, Packard) using a scintillation cocktail (Microscint 0, Packard). The results are expressed as a percent inhibition of the control radio ligand specific binding. The standard reference compound is picrotoxinin, which was tested in each experiment at several concentrations to obtain a competition curve from which its ICso was calculated. In this assay, the following representative compounds disclosed herein had recorded activities at a 10 μM single point concentration in the GABA-gated Cl-Channel Binding Assay.

Test [1] concerns the target T2, wild-type Androgen Receptor (AR-wt) (Homo sapiens, UniProt P10275).
T2 construct: expressed in transfected cells; host or cells: LNCaP AR (cs) cells with ARE firefly luciferase lentiviral construct
T2 sequence (P10275 1-920): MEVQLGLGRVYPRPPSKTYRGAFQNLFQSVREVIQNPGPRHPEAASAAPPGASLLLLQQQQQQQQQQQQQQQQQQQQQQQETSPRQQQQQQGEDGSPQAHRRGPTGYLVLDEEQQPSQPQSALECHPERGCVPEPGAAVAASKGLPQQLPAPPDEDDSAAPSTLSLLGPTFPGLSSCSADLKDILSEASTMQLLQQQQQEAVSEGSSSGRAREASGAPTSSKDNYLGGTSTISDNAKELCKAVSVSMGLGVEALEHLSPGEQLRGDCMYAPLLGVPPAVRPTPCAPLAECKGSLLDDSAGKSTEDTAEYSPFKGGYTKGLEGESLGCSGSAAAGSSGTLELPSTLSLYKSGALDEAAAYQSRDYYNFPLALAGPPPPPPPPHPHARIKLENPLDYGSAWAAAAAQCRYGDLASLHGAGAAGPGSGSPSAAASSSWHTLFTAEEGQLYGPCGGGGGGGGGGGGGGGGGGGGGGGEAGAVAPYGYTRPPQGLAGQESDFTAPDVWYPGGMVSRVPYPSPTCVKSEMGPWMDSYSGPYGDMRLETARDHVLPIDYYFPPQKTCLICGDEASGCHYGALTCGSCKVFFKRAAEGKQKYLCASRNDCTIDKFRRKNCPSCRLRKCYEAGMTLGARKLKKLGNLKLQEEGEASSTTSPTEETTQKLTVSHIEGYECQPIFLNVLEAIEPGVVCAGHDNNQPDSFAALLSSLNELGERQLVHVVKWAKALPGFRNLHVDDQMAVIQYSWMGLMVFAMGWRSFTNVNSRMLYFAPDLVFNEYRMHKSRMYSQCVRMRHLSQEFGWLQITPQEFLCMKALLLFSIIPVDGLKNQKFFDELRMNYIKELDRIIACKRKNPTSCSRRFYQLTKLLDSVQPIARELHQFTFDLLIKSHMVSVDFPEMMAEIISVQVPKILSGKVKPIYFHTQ
The experiment in a line: LNCaP-AR-wt AG: ARE luciferase reporter assay, agonist mode. The class given is cell-based. As to conditions: maximum % stimulation (agonist response), % of 1 μM R-1881 max.

The target of test [2] is T3, F876L mutant Androgen Receptor (AR-F876L) (Homo sapiens, UniProt P10275, F877L).
T3 construct: expressed in transfected cells; host or cells: LNCaP F876L cells with ARE firefly luciferase lentiviral construct
T3 sequence (P10275 1-920 F877L): T2 sequence (P10275 1-920) with F877L
The test can be described thus: LNCaP-AR-F876L AG: ARE luciferase reporter assay, agonist mode. The class given is cell-based. As to conditions: maximum % stimulation (agonist response), % of 1 μM R-1881 max.

Test [3] has as its system androgen dependent signaling (androgen sensitive organs, ASO). The test can be described thus: Hershberger Assay. Type of test: in vivo, Sprague-Dawley rats. As to conditions: p≤0.05, in all 5 organs. Here is the method:
The effect of AR antagonists on androgen dependent signaling in vivo was assessed using the Hershberger assay. In this assay, peripubertal castrated male Sprague-Dawley rats were administered AR antagonists described herein in the presence of testosterone (0.4 mg/kg testosterone propionate) and the weights of androgen dependent organs measured. Dosing was continued for 10 days and measurements taken 24 h after the last dose. The extent of antagonism of AR and consequent inhibition of organ growth was evaluated by comparison to the castration control. Compounds of Formula (I) were dosed orally QD and an endpoint assessment made by change in weight of 5 androgen sensitive organs (ASO): Paired Cowper's Glands (CG), Seminal Vesicles with Fluids and Coagulating Glands (SVCG), Glans Penis (GP), Ventral Prostate (VP) and Levator Ani-Bulbocavernosus Complex (LABC)). According to assay guidelines, statistically significant suppression of ASO is required in 2 of 5 organs for a compound to be classified as an anti-androgen (analysis was performed by t-test/Mann-Whitney).
Compounds defined herein were administered at the indicated dose (mg/kg) and flutamide (FT), positive control, at 3 mg/kg. […]

Numbering of substitutions follows the chain as printed. Values joined by “and” are separate entries in the source; they are usually repeats but may differ in a detail not shown here. Equal values may be shown once.

With `CN1CCC(Oc2ccc(N3C(=S)N(c4cnc(C#N)c(C(F)(F)F)c4)C(=O)C34CCC4)cc2)CC1` [Cpd 85, 5-[8-[4-[(1-methyl-4-piperidyl)oxy]phenyl]-5-oxo-7-thioxo-6,8-diazaspiro[3.4]octan-6-yl]-3-(trifluoromethyl)pyridine-2-carbonitrile], affinity at GR (human) (Cheng Prusoff, [3H]-dexamethasone) was put at a Ki of 9.9 µM. For the same molecule, the half-inhibitory concentration (IC50) on GR (human) ([3H]-dexamethasone 1.5 nM, IM-9 cytosol) was 20 µM; in the test with VCaP cells it was 0.076 µM; with LNCaP WT, 3.29 µM; in the test on LNCaP F876L it was 8.87 µM; on rGABA-gated Cl− channel, 13 µM. Besides, the “% inhibition @ 10 μM” value with rGABA-gated Cl− channel (10 μM single point) is 42% and 49%.
`CN1CCN(CCCc2ccc(N3C(=S)N(c4cnc(C#N)c(C(F)(F)F)c4)C(=O)C34CCC4)cc2)CC1` [Cpd 43, 5-[8-[4-[3-(4-methylpiperazin-1-yl)propyl]phenyl]-5-oxo-7-thioxo-6,8-diazaspiro[3.4]octan-6-yl]-3-(trifluoromethyl)pyridine-2-carbonitrile]: the “LNCaP-AR-wt AG MAX % Stim” value in test [1] is 0.7%. Further, the “LNCaP-AR-F876L AG MAX % Stim” value in test [2] was determined as 0.4%. Also, the “reduction in ASO versus TP control” value in test [3] is listed as “significant reduction”.

The term Ki denotes a dissociation constant, usually derived from enzyme kinetics or from competition with a known ligand. A word on the IC50: it is the midpoint of a concentration-inhibition curve.

(Values after patent US20190209539A1, “THIOHYDANTOIN ANDROGEN RECEPTOR ANTAGONISTS FOR THE TREATMENT OF CANCER” (Janssen Pharmaceutica NV, priority 2016, published 2019).)
